Marks after values point to notes of the source that are not given here.
Legend:
[1] = test system: S. epidermidis; test: Killing of bacteria in lysostaphin-coated Angiocath catheters; type: cell-based; conditions: for CFU (n = 2): catheter coating 0.1 mg/ml; for log reduction from the control sample: coated catheters
Procedure: Coating of Catheters. The needles from the AngioCath catheters were removed and disposed. Using a 1 ml syringe, the catheters were coated with 200 μl of a 0.1 mg/ml solution of lysostaphin. The catheters were incubated for 1 hour, unless otherwise specified, at room temperature. The catheters were then washed with 50 ml of phosphate buffered saline using a peristaltic pump with a flow rate of 1.5 ml/minute. The catheters were then inoculated with 120 μl of a ˜5×10^4 CFU/ml solution of bacteria (diluted in TSB) and incubated for 2 hours at 37° C. The catheter effluent was then streaked onto a blood agar plate and incubated overnight at 37° C.

[2] = test system: SA5; test: Adherence of bacteria to catheters; type: cell-based, S. aureus
Procedure: Adherence of Bacteria to Catheters. Lysostaphin coated catheters were placed in 2 ml of a 0.1 mg/ml solution of lysostaphin for 2 hours with shaking at 37° C. to coat the outside of the catheter. They were then washed and placed in a 5×10^4 CFU/ml solution of SA5 and incubated for 3 hours at 37° C. 40 μl of the bacterial solution was streaked on to blood agar plates and incubated at 37° C. overnight. The catheters were incubated in 2 ml TSB overnight at 37° C. and examined for growth. Untreated catheters were washed with 50 ml PBS and then inoculated with 120 μl of a 5×10^6 CFU/ml solution of bacteria and incubated for 2 or 24 hours. The catheter effluent was then streaked onto blood agar plates and placed at 37° C. overnight. The catheters were washed with 50 ml PBS and the last ml of wash was collected, and 100 μl was streaked onto blood agar plates and incubated at 37° C. overnight. The catheters were then incubated in 1 ml TSB at 37° C. overnight and observed for growth.

[3] = test system: Methicillin-Resistant S. aureus; test: Treatment of established infection in jugular vein catheterized mice; type: in vivo
Procedure: (§1) Jugular vein catheterized mice (Charles River Labs) were used. The mice were challenged through the tail vein with S. aureus (10^3-10^4CFU, a much lower dose than the 5×10^6 CFU or greater typically necessary to establish an infection in mice not catheterized). Treatment began four days post challenge when infection was established. Lysostaphin was administered through the indwelling catheter in a volume of 200 μ PBS (in the case of methicillin resistant S. aureus, nafcillin was added to the treatment). After the final treatment of the day, 50 μl of a lock solution (50% sterile glucose solution) with lysostaphin (and nafcillin, when used), added at the same concentration as used for treatment, was put in the catheters. Control mice received equal treatments with PBS and lock solution alone.
(§2) On the day following the last treatment the liver, heart and a portion of the catheter in the heart were harvested. The catheter portions were sonicated to release bacteria.

[4] = test system: Methicillin Sensitive S. aureus; test: as above; type: in vivo
Procedure: as §1, §2

[5] = test system: S. aureus; test: Pre-treatment of catheterized mice with lysostaphin before S. aureus challenge; type: in vivo; conditions: for CFUs catheter / CFUs heart / CFUs liver: rinsed; for Animals infected: rinsed after 22 hours, 10^4 S. aureus, 4 days
Procedure: Jugular vein catheterized mice were pretreated with one or two doses of lysostaphin via catheter prior to being challenged with S. aureus as in Example 4. The mice received either one dose of lysostaphin (40 mg/kg) 24 hours pre-challenge or two doses of lysostaphin (40 mg/kg) 24 hours and 2 hours pre-challenge. Lysostaphin solutions were left in the catheters during challenge. Control mice received standard Phosphate Buffered Saline (PBS). The mice were sacrificed four days post-challenge.
In the above example, the lysostaphin solution was left in the catheters at the time of bacterial challenge, so it could be argued that this lysostaphin in solution was protecting the catheters from S. aureus infection. In order to perform a more rigorous experiment, Catheterized mice were instilled with a single dose of 40 mg/kg lysostaphin in 200 ul PBS through the catheter. One group also received a subsequent 50 ul of lock solution containing the same concentration of lysostaphin as the pre-instillation dose. Twenty two hours later, the catheters of all of these mice were rinsed thoroughly with PBS. Two hours post-rinsing, the animals were challenged with 10^4 S. aureus. The animals were sacrificed 4 days post S. aureus challenge and the catheters and organs processed for bacteria.

[6] = test system: biofilms of S. aureus SA113; test: Kinetic effect on established biofilms: absorbance at 650 nm and safranin staining; type: cell-based; conditions: for absorbance of biofilms at 650 nM: 6.25 μg/ml in PBS
Procedure: Oxacillin and vancomycin have often been used in antibiotic susceptibility studies of S. aureus biofilms. […] Twenty four-hour biofilms in polystyrene 96-well tissue culture plates were treated with serial dilutions of lysostaphin, oxacillin, and vancomycin (FIG. 7).
In order to examine the kinetic effect of lysostaphin, oxacillin and vancomycin on biofilms, the absorbance of established biofilms in a 96-well tissue culture plate was measured over time (0-3 hrs and 24 hrs). Tissue culture wells containing biofilms of S. aureus SA113 were incubated with serial dilutions of lysostaphin ([…]), oxacillin ([…]), or vancomycin ([…]) for 24 hours, and the absorbance at 650 nm was monitored every 20 minutes for the first 3 hours and then again at 24 hours. The absorbance of the lysostaphin-treated biofilms dropped from approximately 0.35 at time zero to 0.125 after 3 hours of treatment and dropped to near base line (0.04) by 24 hrs when treated with a dose of lysostaphin of 6.25 μg/ml in PBS (FIG. 7). […] Since antimicrobials like oxacillin or vancomycin are effective against actively metabolizing bacteria, a similar experiment was conducted but the biofilms were incubated with the three anti-microbials in bacterial media (TSB). Very similar results were also found when the assay was conducted in TSB rather than PBS.
The capacity of the three agents to disrupt S. aureus biofilms in polystyrene wells can be visualized by comparing the staining intensity of treated wells versus control (buffer-treated) wells.

[7] = Table 7, MRSA, 20 mg/kg t.i.d. 4 days
[8] = 40 mg/kg i.c., no lock, results from the one infected animal

lysostaphin
CFU (n = 2) ([1]; S. epi 380): 4 CFU | CFU (n = 2) ([1]; S. epi 1175): 68 CFU | CFU (n = 2) ([1]; S. epi 35984): 16 CFU | log reduction from the control sample ([1]; S. epidermidis 1175): 1.1 log | log reduction from the control sample ([1]; S. epidermidis ATCC 35984): 1.8 log | log reduction from the control sample ([1]; S. epidermidis type 380): 2.2 log | growth after overnight incubation of catheters in TSB ([2]; after 3 hours in bacterial solution): the catheters remained sterile | clearing of bacterial solution by coated catheters ([2]; catheters coated inside and outside, 5×10^4 CFU/ml SA5, 3 hrs): cleared the solution | S. aureus recovered, Heart [3, 7]: 0 CFU | S. aureus recovered, Liver [3, 7]: 0 CFU | S. aureus recovered, Heart ([3]; Table 7, MRSA, 40 mg/kg t.i.d. 4 days): 0 CFU | clearance of the S. aureus infection ([3]; lower doses or different dosing regimens (40 mg/kg once then 5 mg/kg; 3 doses of 15 mg/kg then 5 mg/kg)): did not result in complete clearance | minimum dose necessary to clear catheters in mice ([3]; three times a day for four days): 40 mg/kg | S. aureus biofilm on implanted catheters (SEM, FIG. 6) ([4]; jugular vein catheterized mice after treatment): cleared the S. aureus biofilm from these catheters | dose required for clearance of an established catheter infection ([4]; methicillin sensitive S. aureus, t.i.d. for 4 days): 20 mg/kg | CFUs catheter ([5]; 40 mg/kg i.c. and lock): 0 CFUs | CFUs heart ([5]; 40 mg/kg i.c. and lock): 0 CFUs | CFUs liver ([5]; 40 mg/kg i.c. and lock): 0 CFUs | Animals infected ([5]; 40 mg/kg i.c. and lock): 0/4 | CFUs catheter ([5]; 40 mg/kg i.c., no lock): 0 CFUs | Animals infected ([5]; 40 mg/kg i.c., no lock): 1/4 | CFUs heart [5, 8]: (287)^a CFUs | CFUs liver [5, 8]: (341)^a CFUs | infection status of pretreated mice ([5]; 40 mg/kg via catheter 24 hours or 24 hours and 2 hours pre-challenge, solution left in catheters, four days post-challenge): All eight treated mice were S. aureus free | protection of catheters from formation of S. aureus biofilms ([5]; single dose of 40 mg/kg pre-instilled, excess rinsed out): will protect the catheters from formation of S. aureus biofilms | absorbance of biofilms at 650 nM ([6]; 24 hrs): ~0.04 | absorbance of biofilms at 650 nM ([6]; after 3 hours): 0.125 | absorbance of biofilms at 650 nM ([6]; time zero): approximately 0.35 | lowest concentration that cleared biofilms (safranin) ([6]; in PBS, 24 hours): 0.8 µg/mL | effect on absorbance of biofilms ([6]; in TSB, 24 hours (data not shown)): reduced the absorbance of biofilms to near background | effect on absorbance of S. aureus biofilms over time (FIG. 7 legend) ([6]; lysostaphin 6.25 cg/ml, vancomycin 800 cg/ml, oxacillin 400 cg/ml): immediate and continuous drop in the absorbance

— patent US7572439B2, “Enzyme disruption of bacterial biofilms” (priority 2002, dated 2009)
